Experimental data: PubChem BioAssay (NCI)
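Each compound was tested at five concentrations against cells in 96-well plates for 48 hours. GI50: concentration for 50% inhibition of growth. TGI: total growth inhibition.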

Tests used:
Test in all cases: NCI anticancer screen, dose series, 48 h
786-0 renal = system: 786-0 renal
A498 renal = system: A498 renal
A549 NSCLC = system: A549 NSCLC
ACHN renal = system: ACHN renal
BT-549 breast = system: BT-549 breast
CAKI-1 renal = system: CAKI-1 renal
CCRF-CEM leukemia = system: CCRF-CEM leukemia
COLO 205 colon = system: COLO 205 colon
DU-145 prostate = system: DU-145 prostate
EKVX NSCLC = system: EKVX NSCLC
HCC-2998 colon = system: HCC-2998 colon
HCT-116 colon = system: HCT-116 colon
HCT-15 colon = system: HCT-15 colon
HL-60(TB) leukemia = system: HL-60(TB) leukemia
HOP-62 NSCLC = system: HOP-62 NSCLC
HOP-92 NSCLC = system: HOP-92 NSCLC
HS 578T breast = system: HS 578T breast
HT29 colon = system: HT29 colon
IGROV1 ovarian = system: IGROV1 ovarian
K-562 leukemia = system: K-562 leukemia
KM12 colon = system: KM12 colon
LOX IMVI melanoma = system: LOX IMVI melanoma
M14 melanoma = system: M14 melanoma
MALME-3M melanoma = system: MALME-3M melanoma
MCF7 breast = system: MCF7 breast
MDA-MB-231 breast = system: MDA-MB-231 breast
MDA-MB-435 = system: MDA-MB-435
MOLT-4 leukemia = system: MOLT-4 leukemia
NCI-H226 lung = system: NCI-H226 lung
NCI-H23 lung = system: NCI-H23 lung
NCI-H460 lung = system: NCI-H460 lung
NCI-H522 lung = system: NCI-H522 lung
NCI/ADR-RES ovarian = system: NCI/ADR-RES ovarian
OVCAR-3 ovarian = system: OVCAR-3 ovarian
OVCAR-4 ovarian = system: OVCAR-4 ovarian
OVCAR-5 ovarian = system: OVCAR-5 ovarian
OVCAR-8 ovarian = system: OVCAR-8 ovarian
PC-3 prostate = system: PC-3 prostate
RPMI-8226 leukemia = system: RPMI-8226 leukemia
RXF 393 renal = system: RXF 393 renal
SF-268 CNS = system: SF-268 CNS
SF-295 CNS = system: SF-295 CNS
SF-539 CNS = system: SF-539 CNS
SK-MEL-2 melanoma = system: SK-MEL-2 melanoma
SK-MEL-28 melanoma = system: SK-MEL-28 melanoma
SK-MEL-5 melanoma = system: SK-MEL-5 melanoma
SK-OV-3 ovarian = system: SK-OV-3 ovarian
SN12C renal = system: SN12C renal
SNB-19 CNS = system: SNB-19 CNS
SNB-75 CNS = system: SNB-75 CNS
SR leukemia = system: SR leukemia
SW-620 colon = system: SW-620 colon
T-47D breast = system: T-47D breast
TK-10 renal = system: TK-10 renal
U251 CNS = system: U251 CNS
UACC-257 melanoma = system: UACC-257 melanoma
UACC-62 melanoma = system: UACC-62 melanoma
UO-31 renal = system: UO-31 renal

`O=C1c2c(c3c4cc(O)ccc4oc3c3[nH]c4ccccc4c23)C(=O)N1O` gave a GI50 (786-0 renal) of 0.752 µM, a TGI (786-0 renal) of 6.62 µM and a GI50 (A498 renal) of 3.16 µM. For the same molecule, the TGI (A498 renal) was 9.48 µM, the GI50 (A549 NSCLC) was 3.29 µM and the TGI (A549 NSCLC) was 18.3 µM. For the same molecule, the GI50 (ACHN renal) was 0.36 µM, the TGI (ACHN renal) was 1.76 µM and the GI50 (BT-549 breast) was 0.423 µM. The TGI (BT-549 breast) was 1.49 µM, the GI50 (CAKI-1 renal) was 0.787 µM and the TGI (CAKI-1 renal) was 3.74 µM. For the same molecule, the GI50 (CCRF-CEM leukemia) was 0.277 µM, the TGI (CCRF-CEM leukemia) was 9.86 µM and the GI50 (COLO 205 colon) was 1.8 µM. For the same molecule, the TGI (COLO 205 colon) was 9.36 µM, the GI50 (DU-145 prostate) was 0.626 µM and the TGI (DU-145 prostate) was 11.2 µM. For the same molecule, the GI50 (EKVX NSCLC) was 2.08 µM, the TGI (EKVX NSCLC) was 8.04 µM and the GI50 (HCC-2998 colon) was 1.35 µM. It also gave a TGI (HCC-2998 colon) of 3.59 µM, a GI50 (HCT-116 colon) of 1.09 µM and a TGI (HCT-116 colon) of 2.81 µM. For the same molecule, the GI50 (HCT-15 colon) was 1.45 µM, the TGI (HCT-15 colon) was 7.19 µM and the GI50 (HL-60(TB) leukemia) was 0.46 µM. It also gave a TGI (HL-60(TB) leukemia) of 7.83 µM, a GI50 (HOP-62 NSCLC) of 0.721 µM and a TGI (HOP-62 NSCLC) of 4.47 µM. It also gave a GI50 (HOP-92 NSCLC) of 1.14 µM, a TGI (HOP-92 NSCLC) of 4.6 µM and a GI50 (HS 578T breast) of 1.46 µM. It also gave a TGI (HS 578T breast) of 5.76 µM, a GI50 (HT29 colon) of 1.6 µM and a TGI (HT29 colon) of 3.8 µM. It also gave a GI50 (IGROV1 ovarian) of 0.724 µM, a TGI (IGROV1 ovarian) of 2.93 µM and a GI50 (K-562 leukemia) of 0.428 µM. It also gave a TGI (K-562 leukemia) of 13.9 µM, a GI50 (KM12 colon) of 1.91 µM and a TGI (KM12 colon) of 5.78 µM. It also gave a GI50 (LOX IMVI melanoma) of 0.258 µM, a TGI (LOX IMVI melanoma) of 1.02 µM and a GI50 (M14 melanoma) of 0.371 µM. It also gave a TGI (M14 melanoma) of 3.87 µM, a GI50 (MALME-3M melanoma) of 0.851 µM and a TGI (MALME-3M melanoma) of 5.08 µM. The GI50 (MCF7 breast) was 0.323 µM, the TGI (MCF7 breast) was 5.21 µM and the GI50 (MDA-MB-231 breast) was 1.18 µM. For the same molecule, the TGI (MDA-MB-231 breast) was 4.71 µM, the GI50 (MDA-MB-435) was 0.627 µM and the TGI (MDA-MB-435) was 2.75 µM. The GI50 (MOLT-4 leukemia) was 0.32 µM, the TGI (MOLT-4 leukemia) was 1.34 µM and the GI50 (NCI-H226 lung) was 1.32 µM. The TGI (NCI-H226 lung) was 5.01 µM, the GI50 (NCI-H23 lung) was 0.411 µM and the TGI (NCI-H23 lung) was 2.25 µM. For the same molecule, the GI50 (NCI-H460 lung) was 0.414 µM, the TGI (NCI-H460 lung) was 2.89 µM and the GI50 (NCI-H522 lung) was 0.22 µM. The TGI (NCI-H522 lung) was 1.22 µM, the GI50 (NCI/ADR-RES ovarian) was 1.57 µM and the TGI (NCI/ADR-RES ovarian) was 29.7 µM. It also gave a GI50 (OVCAR-3 ovarian) of 1.57 µM, a TGI (OVCAR-3 ovarian) of 5.23 µM and a GI50 (OVCAR-4 ovarian) of 2.17 µM. It also gave a TGI (OVCAR-4 ovarian) of 10.7 µM, a GI50 (OVCAR-5 ovarian) of 2.77 µM and a TGI (OVCAR-5 ovarian) of 9.3 µM. It also gave a GI50 (OVCAR-8 ovarian) of 0.82 µM, a TGI (OVCAR-8 ovarian) of 10.7 µM and a GI50 (PC-3 prostate) of 0.812 µM. The TGI (PC-3 prostate) was 5.55 µM, the GI50 (RPMI-8226 leukemia) was 1.41 µM and the TGI (RPMI-8226 leukemia) was 8.01 µM. The GI50 (RXF 393 renal) was 0.872 µM, the TGI (RXF 393 renal) was 2.26 µM and the GI50 (SF-268 CNS) was 0.553 µM. The TGI (SF-268 CNS) was 4.27 µM, the GI50 (SF-295 CNS) was 0.488 µM and the TGI (SF-295 CNS) was 5.58 µM. For the same molecule, the GI50 (SF-539 CNS) was 0.315 µM, the TGI (SF-539 CNS) was 1.26 µM and the GI50 (SK-MEL-2 melanoma) was 1.38 µM. For the same molecule, the TGI (SK-MEL-2 melanoma) was 3.08 µM, the GI50 (SK-MEL-28 melanoma) was 1.15 µM and the TGI (SK-MEL-28 melanoma) was 5.46 µM. For the same molecule, the GI50 (SK-MEL-5 melanoma) was 0.275 µM, the TGI (SK-MEL-5 melanoma) was 0.815 µM and the GI50 (SK-OV-3 ovarian) was 0.941 µM. The TGI (SK-OV-3 ovarian) was 3.3 µM, the GI50 (SN12C renal) was 0.468 µM and the TGI (SN12C renal) was 5.79 µM. For the same molecule, the GI50 (SNB-19 CNS) was 0.542 µM, the TGI (SNB-19 CNS) was 5.53 µM and the GI50 (SNB-75 CNS) was 1.02 µM. It also gave a TGI (SNB-75 CNS) of 2.24 µM, a GI50 (SR leukemia) of 0.274 µM and a TGI (SR leukemia) of 1.93 µM. It also gave a GI50 (SW-620 colon) of 0.549 µM, a TGI (SW-620 colon) of 7.1 µM and a GI50 (T-47D breast) of 0.461 µM. It also gave a TGI (T-47D breast) of 4.53 µM, a GI50 (TK-10 renal) of 5.18 µM and a TGI (TK-10 renal) of 15.4 µM. It also gave a GI50 (U251 CNS) of 0.452 µM, a TGI (U251 CNS) of 12.7 µM and a GI50 (UACC-257 melanoma) of 1.99 µM. It also gave a TGI (UACC-257 melanoma) of 6.32 µM, a GI50 (UACC-62 melanoma) of 0.703 µM and a TGI (UACC-62 melanoma) of 2.4 µM. The GI50 (UO-31 renal) was 0.342 µM and the TGI (UO-31 renal) was 1.43 µM.
